Reference: patent US7943648B2, “Salts of imidazole-5-carboxylic acid derivatives, a method for preparing same and pharmaceutical compositions comprising same” (Shanghai Allist Pharmaceutical Inc., priority 2006, dated 2011)

Tests used:
[1] = SD rats drug absorption test
Method: The intravenous blood was collected from venous plexus behind eyeballs of rats at different time before and after administration, and the blood plasma is prepared by separated.
Blood samples are collected from an orbit at different time after the administration.

[2] = solvent H2O; stirred strongly 30 seconds in each 5 minutes, observed within 30 minutes
Excerpt: Each compound prepared above was weighted and added to solvents with different volume capacity.

SMILES: CCCCc1nc(Cl)c(C(=O)OCOC(=O)OC(C)C)n1Cc1ccc(-c2ccccc2-c2nnn[nH]2)cc1 [Compound 1, 2-butyl-4-chloro-1-[2′-(1H-tetrazol-5-yl)1,1′-biphenyl-methyl]imidazole-5-carboxylic acid, 1-[(isopropoxycarbonyl)oxy]methyl ester]
- Bioavailability ([1]; intragastric infusion versus EXP3174 intravenous 7.9 mg/kg, based on plasma EXP3174, 7.9 mg/kg): 4.11%
- Tmax ([1]; intragastric infusion, same dosage as EXP3174 (7.9 mg/kg), active metabolite EXP3174 measured in blood plasma by LC-MS/MS): 2 h
- Solubility (in H2O) [2]: Slightly soluble (1 g of compound can be dissolved in 100 ml˜1000 ml solvent)
